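These data come from cells grown in 96-well plates and exposed to compound for 48 hours at five concentrations. GI50 = concentration required for 50% inhibition of growth.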 Active and inactive are the calls of the source. No stated cut-off is given here; in the data, active = GI50 up to about 1.1 µM and inactive = higher.
How the values were obtained:
Test in all cases: NCI-60 cell line screen, 48 h
[1] = tested on: SF-539
[2] = tested on: CCRF-CEM
[3] = tested on: SK-MEL-2
[4] = tested on: HCT-15
[5] = tested on: CAKI-1
[6] = tested on: OVCAR-8
[7] = tested on: MCF7
[8] = tested on: SNB-75
[9] = tested on: HL-60
[10] = tested on: SF-295
[11] = tested on: HOP-92
[12] = tested on: NCI-H460
[13] = tested on: 786-0
[14] = tested on: SW-620
[15] = tested on: TK-10
[16] = tested on: A549
[17] = tested on: M14
[18] = tested on: U-251
[19] = tested on: DU-145
[20] = tested on: SR
[21] = tested on: EKVX
[22] = tested on: COLO 205
[23] = tested on: SK-MEL-5
[24] = tested on: MDA-N
[25] = tested on: OVCAR-5
[26] = tested on: T47D
[27] = tested on: MOLT-4
[28] = tested on: UACC-257
[29] = tested on: OVCAR-3
[30] = tested on: PC-3
[31] = tested on: KM12
[32] = tested on: Hs-578T
[33] = tested on: NCI/ADR-RES
[34] = tested on: BT-549
[35] = tested on: UACC-62
[36] = tested on: UO-31
[37] = tested on: IGROV-1
[38] = tested on: A498
[39] = tested on: HT-29
[40] = tested on: ACHN
[41] = tested on: K562
[42] = tested on: HCT-116
[43] = tested on: LOX IMVI
[44] = tested on: OVCAR-4
[45] = tested on: SF-268
[46] = tested on: SN12C
[47] = tested on: SK-OV-3
[48] = tested on: NCI-H226
[49] = tested on: NCI-H522
[50] = tested on: RPMI-8226
[51] = tested on: MDA-MB-231
[52] = tested on: RXF 393
[53] = tested on: MDA-MB-435
[54] = tested on: NCI-H23
[55] = tested on: SNB-19
[56] = tested on: SK-MEL-28
[57] = tested on: Malme-3M
[58] = tested on: HOP-62
[59] = tested on: HCC 2998

Measured: GI50

CCCCCCCCCCCCCCCCOC[C@@H](COC(c1ccccc1)(c1ccccc1)c1ccccc1)O[PH](=S)OC (stereo partly specified)
inactive: [1] 2.82 µM | [2] 11.7 µM | [3] 11.1 µM | [5] 11.6 µM | [6] 12.1 µM | [7] 7.43 µM | [8] 10.3 µM | [9] 14.8 µM | [10] 1.41 µM | [11] 12.4 µM | [12] 1.6 µM | [13] 6.49 µM | [14] 16.1 µM | [15] 11.5 µM | [16] 5.61 µM | [17] 3.3 µM | [18] 4.04 µM | [19] 17 µM | [20] 2.33 µM | [21] 13.6 µM | [22] 17.9 µM | [23] 4.81 µM | [24] 2.24 µM | [25] 10.8 µM | [26] 16.2 µM | [27] 20.4 µM | [28] 11.6 µM | [29] 13.2 µM | [30] 5.32 µM | [31] 4.3 µM | [32] 15.5 µM | [33] 22.6 µM | [34] 3.35 µM | [35] 3.81 µM | [36] 16.4 µM | [37] 13.7 µM | [38] 11.5 µM | [39] 16.8 µM | [40] 15.7 µM | [41] 16.4 µM | [42] 3.86 µM | [43] 2.98 µM | [44] 9.35 µM | [45] 9.25 µM | [46] 5.32 µM | [47] 5.68 µM | [48] 19.1 µM | [49] 10.2 µM | [50] 3.4 µM | [51] 2.28 µM | [52] 7.53 µM | [53] 2.24 µM | [54] 10.9 µM | [55] 4.79 µM
10.6 µM: [4]

CC(C)CCNC(=O)c1ccc(CNC(=O)/C=C/c2ccc3c(c2)-c2ccccc2C3)cc1
41.5 µM: [4]
inactive: [1] > 100 µM | [2] 38.8 µM | [3] > 100 µM | [5] 26.5 µM | [6] 27.7 µM | [7] > 100 µM | [8] 23.7 µM | [10] 30.7 µM | [11] 41.2 µM | [56] 34 µM | [12] 57.4 µM | [57] 17.3 µM | [58] 19.1 µM | [13] 33.9 µM | [14] 44.8 µM | [15] 40 µM | [16] 41.5 µM | [17] 74.3 µM | [18] 24.7 µM | [19] 44.6 µM | [20] 34.9 µM | [21] > 100 µM | [22] 88.1 µM | [23] 36.9 µM | [24] 62.8 µM | [25] > 100 µM | [26] 39 µM | [59] 71.3 µM | [27] 36.2 µM | [28] 95.9 µM | [29] 23.4 µM | [30] 42.9 µM | [31] 33.3 µM | [32] 26.9 µM | [33] 34.2 µM | [34] 87.3 µM | [35] > 100 µM | [36] 42 µM | [37] 58.7 µM | [38] > 100 µM | [39] 41.5 µM | [40] 57.4 µM | [41] 64.3 µM | [42] 59.8 µM | [43] 50.6 µM | [44] 22.9 µM | [45] 38.7 µM | [46] > 100 µM | [47] 57.1 µM | [48] 60 µM | [49] 22.6 µM | [50] 44 µM | [51] 34.5 µM | [52] 39.1 µM | [53] 52.5 µM | [54] 94 µM | [55] > 100 µM

CNC(=O)OCCN1c2ccccc2Sc2ccccc21
> 100 µM: [4]
active: [51] 0.64 µM
inactive: [1] > 100 µM | [2] > 100 µM | [5] 36.4 µM | [6] > 100 µM | [7] > 100 µM | [9] > 100 µM | [10] 60.8 µM | [11] 50.4 µM | [56] > 100 µM | [12] 86.7 µM | [57] > 100 µM | [58] 14.1 µM | [13] > 100 µM | [14] > 100 µM | [15] > 100 µM | [16] 87.1 µM | [17] > 100 µM | [18] > 100 µM | [19] > 100 µM | [20] > 100 µM | [21] 17.1 µM | [22] > 100 µM | [23] 50.4 µM | [24] > 100 µM | [25] > 100 µM | [26] > 100 µM | [59] > 100 µM | [27] > 100 µM | [28] > 100 µM | [29] 63.2 µM | [30] 46.6 µM | [31] > 100 µM | [32] > 100 µM | [33] > 100 µM | [34] > 100 µM | [35] 4.99 µM | [36] 69.2 µM | [37] 42.1 µM | [38] 57.5 µM | [39] > 100 µM | [40] 73.6 µM | [41] > 100 µM | [42] 74 µM | [43] 91.6 µM | [44] > 100 µM | [45] > 100 µM | [46] > 100 µM | [47] > 100 µM | [48] 47.9 µM | [49] > 100 µM | [52] 19.2 µM | [53] > 100 µM | [54] > 100 µM | [55] > 100 µM

O=C(N1CCOCC1)C1(c2ccccc2)CCNCC1
inactive: [1] > 100 µM | [3] > 100 µM | [5] > 100 µM | [6] > 100 µM | [7] > 100 µM | [8] > 100 µM | [10] > 100 µM | [11] > 100 µM | [56] > 100 µM | [12] > 100 µM | [57] > 100 µM | [58] > 100 µM | [13] > 100 µM | [14] > 100 µM | [15] > 100 µM | [16] > 100 µM | [17] > 100 µM | [18] > 100 µM | [19] > 100 µM | [20] > 100 µM | [21] > 100 µM | [22] > 100 µM | [23] > 100 µM | [24] > 100 µM | [25] > 100 µM | [26] > 100 µM | [27] > 100 µM | [28] > 100 µM | [29] > 100 µM | [30] > 100 µM | [31] > 100 µM | [32] > 100 µM | [33] > 100 µM | [34] > 100 µM | [35] > 100 µM | [36] > 100 µM | [37] > 100 µM | [38] > 100 µM | [39] > 100 µM | [40] > 100 µM | [41] > 100 µM | [42] > 100 µM | [43] > 100 µM | [44] > 100 µM | [45] > 100 µM | [46] > 100 µM | [47] > 100 µM | [48] > 100 µM | [49] > 100 µM | [50] > 100 µM | [51] > 100 µM | [52] > 100 µM | [53] > 100 µM | [54] > 100 µM | [55] > 100 µM
> 100 µM: [4]
active: [2] 0.0488 µM
